Measurements: US10471048B2, “Thienopyridine derivative for the treatment of hepatitis C infections” (Cipla (UK) Limited, priority 2015, dated 2019)

Legend:
[1] = tested on: HCV GT1b CON-1 replicon; assay: HCV replicon assay (antiviral activity); assay type: cell-based, Hepatitis C virus; conditions: In vitro HCV replicon assay
Excerpt: The HCV replicon antiviral evaluation assay examines the effects of compound at six serial dilutions. Human interferon alpha-2b (rIFNα-2b) and Sofosbuvir are included in each run as a positive control compound.

[2] = Infectious HCVcc assay, cell viability (CytoTox-1); conditions: human, Huh7.5 cells infected with cell culture-derived HCV (HCVcc)
Description: (§1) Huh7.5 cells are grown in Dulbecco's modified essential media (DMEM), 10% fetal bovine serum (FBS), 1% penicillin-streptomycin (pen-strep), 1% Non-essential amino acids (NEAA) in a 5% CO2 incubator at 37° C. Huh7.5 cells are seeded at 1×10^4 cells per well into 96-well plates according to Southern Research Institute standard format. Test articles are serially diluted with DMEM plus 5% FBS. The diluted compound in the amount of 50 μl is mixed with equal volume of cell culture-derived HCV (HCVcc), then applied to appropriate wells in the plate. Human interferon alpha-2b (rIFNα-2b) and/or Sofosbuvir are included as a positive control. After 72 hr incubation at 37° C., the cells are lysed for measurement of luciferase activity using Renilla Luciferase Assay System (Promega) according to manufacturer's instruction. The number of cells in each well is determined by CytoTox-1 reagent (Promega).

[3] = HCV replicon assay, cell viability (CytoTox-1); conditions: human, Huh7 hepatoma cells containing a subgenomic HCV replicon
Description: We use the subgenomic HCV replicons of genotype 1a (H77 strain), 1b (Con1 strain), and 2a (JFH-1 strain), which are Huh7 human hepatoma cell lines that contains an HCV replicon.
Briefly, the replicon cells are plated at 5,000 cells/well into 96-well plates that are dedicated for the analysis of cell numbers (cytotoxicity) or antiviral activity. On the following day, samples are diluted with assay media and added to the appropriate wells. Cells are processed 72 hours later when the cells are still sub-confluent. […] The concentration of drug that reduces cell viability is assessed by the fluorometric CytoTox-1 cell proliferation assay (Promega), (expressed as cell numbers). […] Where applicable EC50 (concentration inhibiting HCV replicon by 50%), EC90 (concentration inhibiting HCV replicon by 90%), CC50 (concentration decreasing cell viability by 50%), CC90 (concentration decreasing cell viability by 90%) and SI (selectivity indices: CC50/EC50 and CC90/EC90) values are derived.

[4] = tested on: cell culture-derived HCV (HCVcc); assay: microbe, parasite or virus in culture; assay type: cell-based, Hepatitis C virus
Description: as §1

CC(=O)Oc1cc2c(s1)CCN(C(C(=O)C1CC1)c1ccccc1F)C2.Cl (racemic) [Prasugrel, 5-[(1RS)-2-cyclopropyl-1-(2-fluorophenyl)-2-oxoethyl]-4,5,6,7-tetrahydrothieno[3,2-c]pyridin-2-yl acetate hydrochloride]
EC50 ([1]; Hepatitis C virus, GT1B, concentration inhibiting HCV replicon by 50%, 72 hours): 47.1 µM | Selectivity index ([1]; CC50/EC50): 1.88 | CC50 at 72 h [2]: > 100 µM | CC50 at 72 h [3]: 88.5 µM | EC50 ([4]; Hepatitis C virus, 72 h): 9.71 µM | Selectivity index ([4]; In vitro HCVcc assay, CC50/EC50): >10.3
